Patent US8722580B2, “Agent for inhibiting cytokinin signaling” (Sumitomo Chemical Company, Limited, priority 2006, dated 2014)

How the values were obtained:
[1] = system: Arabidopsis thaliana; experiment: Root growth-promoting activity test (Example 9); type: in vivo; details: main root length vs control section, 22° C., 10 days
Experimental: Enshi standard medium having the following composition (see Table 10) was prepared. To cluster tubes was dispensed each 4 μl of a solution of a chemical substance in DMSO to a final concentration of 0.001 ppm to 10 ppm, and then, was dispensed each 600 μl of the sterilized Enshi standard medium. Then the resulting solution was well mixed. In each of the cluster tubes, 10-20 seeds of Arabidopsis thaliana were sown, and cultured at 22° C. for 10 days in the light. Then, the length of main roots (average main roots) generated from the seeds of Arabidopsis thaliana was measured. An average of eight repeats was determined, and a root growth rate was determined according to the following equation.
Root growth rate (%)=(Average main root length in chemical substance-treated section)/(Average main root length in control section)×100

[2] = system: transformed cell TM182-p415CYC1; experiment: Control growth test with transformed yeast cell TM182-p415CYC1 (toxicity to yeast); type: cell-based; details: trans-zeatin 0.6 ppm; chemical substance 2 ppm; 30° C., 24 hours; turbidity OD 600
Experimental: (§1) The transformed cell TM182-CRE1 and the transformed cell TM182-p415CYC1 obtained in Example 6 were each inoculated in 10 ml of a DOLU+Gal medium, and preincubated at 30° C. for 18 hours to obtain a preincubation liquid for each of the transformed cells. The preincubation liquid was diluted with a DOLU+Glu medium for the transformed cell TM182-CRE1 or with a DOLU+Gal medium for the transformed cell TM182-p415CYC1 until OD600=0.1 was reached, to obtain a preincubation dilution for each of the transformed cells.
(§2) To each well of a 96-well plate was added 1 μl of a 200 ppm solution of a test substance in dimethyl sulfoxide (DMSO) to prepare an Assay plate. At the same time, as controls, only 1 μl of DMSO was added to a part of wells. An assay plate for the transformed cell TM182-CRE1 and an assay plate for the transformed cell TM182-p415CYC1 were prepared.
(§3) A 10,000 ppm solution of trans-zeatin (cytokinin) in DMSO was 50-fold diluted with a DOLU+Gul medium to 200 ppm. The 200 ppm trans-zeatin solution was added in an amount of 3/1,000 volume to each of the above-described preincubation dilution to prepare each preincubation dilution containing trans-zeatin at 0.6 ppm. The 0.6 ppm preincubation dilution was added in an amount of 100 μl to each wells of the assay plate for each transformed cell. The plates were incubated at 30° C. for 24 hours. Then, turbidity (OD 600) of each well was measured by using a plate reader. The activity of the test substance for inhibiting intracellular signaling from a plant-derived cytokinin receptor of a cell was tested by comparing the measured turbidity with the turbidity of the control well.
(§4) (Relative growth rate in test section to control section) [%]=[(Turbidity in test section)−(Turbidity in blank)]/[(Turbidity in control section)−(Turbidity in blank)]×100 (Activity of inhibiting intracellular signaling from plant-derived cytokinin receptor of cell) [%]=100−(Relative growth rate in test section to control section)
(§5) In all cases, the existing concentration of trans-zeatin was adjusted to 0.6 ppm and the existing concentration of a chemical substance was adjusted to 2 ppm.
(§6) In all cases, the existing concentration of trans-zeatin was adjusted to 0.6 ppm and the existing concentration of a chemical substance was adjusted to 2 […].

[3] = biological target: T1, cytokinin receptor CRE1 (Arabidopsis thaliana, UniProt Q9C5U0, S567G/T1018A); experiment: Inhibition of intracellular signaling from plant-derived cytokinin receptor, growth of transformed yeast cell TM182-CRE1; type: cell-based; details: trans-zeatin 0.6 ppm, chemical substance 2 ppm; for Relative growth rate (%) in test section of test substance to control section, Transformed cell TM182-CRE1: 30° C., 24 hours, turbidity OD 600; for Activity (%) of test substance for inhibiting intracellular signaling from plant-derived cytokinin receptor of cell: = 100 − relative growth rate of TM182-CRE1
T1 construct: expressed in transfected cells; host or cells: Saccharomyces cerevisiae TM182 (sln1Δ) transformed with p415CYC-CRE1
T1 sequence (Q9C5U0 24-1080 S567G/T1018A): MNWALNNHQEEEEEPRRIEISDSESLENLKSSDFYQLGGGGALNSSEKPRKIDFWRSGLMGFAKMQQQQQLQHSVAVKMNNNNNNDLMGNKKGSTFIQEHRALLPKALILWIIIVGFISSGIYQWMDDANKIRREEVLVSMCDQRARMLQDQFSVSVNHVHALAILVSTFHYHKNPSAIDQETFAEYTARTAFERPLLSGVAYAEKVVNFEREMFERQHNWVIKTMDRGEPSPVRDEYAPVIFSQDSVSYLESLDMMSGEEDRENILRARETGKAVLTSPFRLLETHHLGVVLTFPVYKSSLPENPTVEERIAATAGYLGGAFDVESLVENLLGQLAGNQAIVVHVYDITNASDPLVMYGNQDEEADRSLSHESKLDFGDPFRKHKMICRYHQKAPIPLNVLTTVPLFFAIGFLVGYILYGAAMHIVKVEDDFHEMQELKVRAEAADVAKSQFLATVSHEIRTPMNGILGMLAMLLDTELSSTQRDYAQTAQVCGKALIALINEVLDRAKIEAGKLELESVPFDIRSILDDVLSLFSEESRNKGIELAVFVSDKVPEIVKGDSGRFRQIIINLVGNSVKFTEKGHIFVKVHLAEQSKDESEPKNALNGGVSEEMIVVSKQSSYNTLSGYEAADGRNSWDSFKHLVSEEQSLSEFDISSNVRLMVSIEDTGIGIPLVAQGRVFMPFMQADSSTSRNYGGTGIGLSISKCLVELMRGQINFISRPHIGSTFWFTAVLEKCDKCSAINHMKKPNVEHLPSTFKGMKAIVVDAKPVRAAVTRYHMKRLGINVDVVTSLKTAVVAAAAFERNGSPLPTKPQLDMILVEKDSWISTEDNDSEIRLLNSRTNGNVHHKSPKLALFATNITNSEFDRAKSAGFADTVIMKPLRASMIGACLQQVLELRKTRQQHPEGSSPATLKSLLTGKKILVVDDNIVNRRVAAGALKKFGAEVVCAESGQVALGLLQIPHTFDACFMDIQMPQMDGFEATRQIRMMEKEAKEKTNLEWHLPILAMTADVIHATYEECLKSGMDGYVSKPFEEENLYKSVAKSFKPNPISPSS
Experimental: as §1, §2, §3, §4, §5, §6

[4] = test final concentration 5 ppm (concentration with highest root growth rate)
[5] = test final concentration 10 ppm (concentration with highest root growth rate)
[6] = test final concentration 0.625 ppm (concentration with highest root growth rate)
[7] = test final concentration 2.5 ppm (concentration with highest root growth rate)
[8] = test final concentration 0.156 ppm (concentration with highest root growth rate)

| SMILES | Relative growth rate (%) in test section of test substance to control section, Transformed cell TM182-p415CYC1 [2] [%] | Relative growth rate (%) in test section of test substance to control section, Transformed cell TM182-CRE1 [3] [%] | Activity (%) of test substance for inhibiting intracellular signaling from plant-derived cytokinin receptor of cell [3] [%] | other results |
| --- | --- | --- | --- | --- |
| Clc1nc(-c2ccccc2)c2c(Cl)cccc2n1 [Ia1-1] | – | – | – | Root growth-promoting activity (root growth rate) [1, 4]: 133.3% |
| NNc1nc(-c2ccccc2)c2cc(Cl)ccc2n1 [Ic3-20] | 86.5 | 5.0 | 95.0 | Root growth-promoting activity (root growth rate) [1, 5]: 137.8% |
| FC(F)(F)c1ccc2nc(Cl)nc(-c3ccccc3)c2c1 [Ia1-6] | – | – | – | Root growth-promoting activity (root growth rate) [1, 6]: 126.9% |
| OCCNc1nc(-c2ccccc2)c2cc(Br)ccc2n1 [Ic4-1] | 95.0 | 4.6 | 95.4 | – |
| OCCCNc1nc(-c2ccccc2)c2cc(F)ccc2n1 [Ic2-1] | 124.6 | 2.8 | 97.2 | Root growth-promoting activity (root growth rate) [1, 7]: 127.4% |
| CNc1nc(-c2ccccc2)c2cc(Cl)ccc2n1 [Ic3-23] | 108.1 | 4.1 | 95.9 | Root growth-promoting activity (root growth rate) [1, 5]: 150.0% |
| NCCSc1nc(-c2ccccc2)c2cc(Cl)ccc2n1 [Ie3-2] | – | – | – | Root growth-promoting activity (root growth rate) [1, 5]: 147.6% |
| CN(C)CCNc1nc(-c2ccccc2)c2cc(Cl)ccc2n1 [Ic3-21] | 121.6 | 5.0 | 95.0 | Root growth-promoting activity (root growth rate) [1, 7]: 131.7% |
| Fc1ccc2nc(Cl)nc(-c3ccccc3)c2c1 [Ia1-2] | – | – | – | Root growth-promoting activity (root growth rate) [1, 5]: 139.7% |
| CN(CCO)c1nc(-c2ccccc2)c2cc(Cl)ccc2n1 [Ic3-6] | 114.6 | 2.8 | 97.2 | Root growth-promoting activity (root growth rate) [1, 6]: 122.4% |
| CN(C)c1nc(-c2ccccc2)c2cc(Cl)ccc2n1 [Ic3-25] | 122.0 | 6.0 | 94.0 | Root growth-promoting activity (root growth rate) [1, 5]: 140.0% |
| O=[N+]([O-])c1ccc2nc(Cl)nc(-c3ccccc3)c2c1 [Ia1-7] | 78.8 | 1.2 | 98.8 | – |
| OCCCNc1nc(-c2ccccc2)c2cc(Br)ccc2n1 [Ic4-2] | 109.3 | 0.9 | 99.1 | – |
| NCCCCNc1nc(-c2ccccc2)c2cc(Cl)ccc2n1 [Ic3-22] | 110.6 | 4.9 | 95.1 | Root growth-promoting activity (root growth rate) [1, 8]: 129.3% |
| COc1ccc2nc(NCCCO)nc(-c3ccccc3)c2c1 [Ic8-1] | – | – | – | Root growth-promoting activity (root growth rate) [1, 5]: 162.1% |
| N#CCNc1nc(-c2ccccc2)c2cc(Cl)ccc2n1 [Ic3-26] | 110.7 | 5.3 | 94.7 | Root growth-promoting activity (root growth rate) [1, 4]: 136.4% |
| NCCOc1nc(-c2ccccc2)c2cc(Cl)ccc2n1 [Id3-1, 2-(2-aminoethoxy)-6-chloro-4-phenylquinazotine] | 112.5 | 2.1 | 97.9 | – |
| Clc1cccc(-c2nc(Cl)nc3ccc(Cl)cc23)c1 [Ia1-14] | – | – | – | Root growth-promoting activity (root growth rate) [1, 8]: 129.3% |
| NC(=O)CNc1nc(-c2ccccc2)c2cc(Cl)ccc2n1 [Ic3-31] | – | – | – | Root growth-promoting activity (root growth rate) [1, 5]: 142.2% |
| N#CCCNc1nc(-c2ccccc2)c2cc(Cl)ccc2n1 [Ic3-34] | 118.5 | 0.2 | 99.8 | – |
| Cc1ccc2nc(NCCCO)nc(-c3ccccc3)c2c1 [Ic5-5] | 126.3 | 7.2 | 92.8 | Root growth-promoting activity (root growth rate) [1, 7]: 157.8% |
| CCOCCNc1nc(-c2ccccc2)c2cc(Cl)ccc2n1 [Ic3-45] | 98.7 | 0.8 | 99.2 | – |
| C#CCNc1nc(-c2ccccc2)c2cc(Cl)ccc2n1 [Ic3-30] | 108.9 | 2.2 | 97.8 | – |
| O=Cc1nc(-c2ccccc2Cl)c2cc(Br)ccc2n1 [Ib4-1] | 110.9 | 8.7 | 91.3 | – |
| N=C(N)Nc1nc(-c2ccccc2)c2cc(Cl)ccc2n1 [Ic3-36] | – | – | – | Root growth-promoting activity (root growth rate) [1, 7]: 123.1% |
| Nc1nc(-c2ccccc2)c2cc(Cl)ccc2n1 [Ic3-19] | 102.7 | 2.4 | 97.6 | Root growth-promoting activity (root growth rate) ([1]; test final concentration 1.25 ppm (concentration with highest root growth rate)): 155.6% |
| COCCN(C)c1nc(-c2ccccc2)c2cc(Cl)ccc2n1 [Ic3-9] | 122.0 | 1.5 | 98.5 | – |
